The source of these data is paper PMC8210147, “Characterization of the MurT/GatD complex in Mycobacterium tuberculosis towards validating a novel anti-tubercular drug target” (JAC-Antimicrobial Resistance, 2021).

This test deals with Rv3712 (mycobacterial MurT) (Mycobacterium tuberculosis, UniProt I6Y4C7).
Chain of Rv3712 (mycobacterial MurT) (I6Y4C7 entry or part of it): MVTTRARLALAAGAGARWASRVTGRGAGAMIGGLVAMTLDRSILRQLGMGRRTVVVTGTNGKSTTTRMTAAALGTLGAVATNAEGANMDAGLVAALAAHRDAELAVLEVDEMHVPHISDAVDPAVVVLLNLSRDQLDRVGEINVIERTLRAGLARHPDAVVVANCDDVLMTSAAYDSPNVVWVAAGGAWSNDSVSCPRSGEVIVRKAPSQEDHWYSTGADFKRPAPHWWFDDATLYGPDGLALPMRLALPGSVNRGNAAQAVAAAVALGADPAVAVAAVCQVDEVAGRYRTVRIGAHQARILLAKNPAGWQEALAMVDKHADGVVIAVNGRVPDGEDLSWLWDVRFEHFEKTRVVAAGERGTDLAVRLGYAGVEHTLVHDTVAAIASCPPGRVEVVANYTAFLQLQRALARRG

For the compound `Nc1ncnc2c1ncn2[C@@H]1O[C@H](COP(=O)(O)OP(=O)(O)OP(=O)(O)O)[C@@H](O)[C@H]1O` [ATP], the “inorganic phosphate release (PiColorLock Gold), 30 min” value is on record as “Rv3712 was found to be an ATPase”.
